Key:
5HT2 receptor [1] = biological target: T1, 5HT2 receptor (Mus musculus, UniProt P35363); assay: 5-DMT head twitch test; type: in vivo; conditions: ip, mice, 5-DMT induced head twitch, read-out: ED50 FOR ABOLITION OF HEAD TWITCH
T1 construct: from tissue; host or cells: whole living mouse (endogenous receptor of the brain)
Method: Psychopharmacol., Vol. 3, pages 89-92, (1979). The administration of 5-methoxy-N,N-dimethyltryptamine (DMT) to mice typically produces a characteristic head twitch in the mice. In this test, the mice are administered 5-DMT and a test compound. An absence of head twitches in the mice is considered to be predictive of the ability of the test compound to antagonize the 5HT2 receptor in vivo.

5HT2 receptor [2] = biological target: T2, 5HT2 receptor (Rattus norvegicus, UniProt P14842); assay: [3H] spiroperidol binding test
T2 construct: from tissue
T2 sequence (P14842 whole entry): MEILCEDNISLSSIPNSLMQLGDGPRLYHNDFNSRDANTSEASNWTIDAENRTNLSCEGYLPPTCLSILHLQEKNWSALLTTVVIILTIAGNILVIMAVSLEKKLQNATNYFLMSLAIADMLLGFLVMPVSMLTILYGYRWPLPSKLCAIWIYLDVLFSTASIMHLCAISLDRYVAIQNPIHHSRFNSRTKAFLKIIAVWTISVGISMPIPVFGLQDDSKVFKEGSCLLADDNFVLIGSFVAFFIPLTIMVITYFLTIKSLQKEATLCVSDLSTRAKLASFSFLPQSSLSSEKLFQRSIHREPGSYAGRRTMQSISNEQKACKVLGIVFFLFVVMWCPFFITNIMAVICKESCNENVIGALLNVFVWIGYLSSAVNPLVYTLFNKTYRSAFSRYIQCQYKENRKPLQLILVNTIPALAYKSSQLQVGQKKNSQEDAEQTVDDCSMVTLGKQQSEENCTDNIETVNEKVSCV
Excerpt: In this test, 5HT2 receptors are exposed to both [^3 H] spiroperidol, (a substance known to have a specific affinity for the receptor) and the test compound. The extent to which there is a decrease in binding of the [^3 H] spiroperidol to the receptor is indicative of the affinity of the test compound for the 5HT2 receptor.
1-(4-Fluorophenyl)-2-[4-[(4-methanesulfonamidophenyl)carbonyl]-1-piperidinyl]-ethanone (Compound #1) and 1-(4-fluorophenyl)-2-[4-[(4-acetamidophenyl)carbonyl]-1-piperidinyl]-ethanone (Compound #2) were tested in this procedure. For comparative purposes, 1-(3-pyridyl)-2-[4 -[(4-methanesulfonamidophenyl)carbonyl]-1-piperidinyl]ethanone (Compound #3) and N-[4-[[1-[2-(4-fluoro phenyl)ethyl]-4-piperidne]carbenyl]phenyl] methane sulfononamide (compound #4) were also tested. Compound #4 was described in European Application 0 320 983, supra, as Example Number 8 and was prepared in that manner.

thrombus formation = conditions: canine models; Bush et al., Drug Development Research, Vol. 7 (1986); cited from earlier work
[3] = tested on: rabbit vascular smooth muscle cells; conditions: culture of rabbit vascular smooth muscle cells; Araki et al., Atherosclerosis, 83 (1990); cited from earlier work
[4] = tested on: phospholipase C mediated hydrolysis of phosphoinositides in rabbit vascular smooth muscle cells; conditions: Araki et al.; cited from earlier work
[5] = tested on: coronary vessel constriction; conditions: patients with stable angina; Golino et al., NEJM 1991; cited from earlier work

T1 sequence (P35363 whole entry): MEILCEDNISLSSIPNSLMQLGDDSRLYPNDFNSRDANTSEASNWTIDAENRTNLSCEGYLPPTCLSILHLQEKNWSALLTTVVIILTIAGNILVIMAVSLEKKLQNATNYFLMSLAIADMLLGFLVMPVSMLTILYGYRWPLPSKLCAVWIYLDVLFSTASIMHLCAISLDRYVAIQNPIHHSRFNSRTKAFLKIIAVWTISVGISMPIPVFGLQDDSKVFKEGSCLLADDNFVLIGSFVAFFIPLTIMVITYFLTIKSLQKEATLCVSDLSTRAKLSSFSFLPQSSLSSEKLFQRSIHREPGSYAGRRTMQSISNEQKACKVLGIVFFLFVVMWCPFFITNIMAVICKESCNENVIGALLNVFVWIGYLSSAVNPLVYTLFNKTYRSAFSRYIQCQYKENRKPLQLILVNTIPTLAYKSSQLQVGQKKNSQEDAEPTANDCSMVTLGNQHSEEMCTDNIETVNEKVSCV

Structure (SMILES): CS(=O)(=O)Nc1ccc(C(=O)C2CCN(CC(=O)c3cccnc3)CC2)cc1 [Compound #3, 1-(3-pyridyl)-2-[4-[(4-methanesulfonamidophenyl)carbonyl]-1-piperidinyl]-ethanone]
- ED50 (5HT2 receptor [1]): > 200 mg/kg

Structure (SMILES): CC(=O)Nc1ccc(C(=O)C2CCN(CC(=O)c3ccc(F)cc3)CC2)cc1 [Compound #2, 1-(4-fluorophenyl)-2-[4-[(4-acetamidophenyl)carbonyl]-1-piperidinyl]-ethanone]
- ED50 (5HT2 receptor [1]): 0.051 mg/kg

Structure (SMILES): CS(=O)(=O)Nc1ccc(C(=O)C2CCN(CCc3ccc(F)cc3)CC2)cc1 [Compound #4, N-[4-[[1-[2-(4-fluorophenyl)ethyl]-4-piperidne]carbenyl]phenyl] methane sulfononamide]
- IC50 (5HT2 receptor [2]): 0.1 µM
- ED50 (5HT2 receptor [1]): 0.49 mg/kg

Structure (SMILES): CS(=O)(=O)Nc1ccc(C(=O)C2CCN(CC(=O)c3ccc(F)cc3)CC2)cc1 [Compound #1, 1-(4-Fluorophenyl)-2-[4-[(4-methanesulfonamidophenyl)carbonyl]-1-piperidinyl]-ethanone]
- ED50 (5HT2 receptor [1]): 0.034 mg/kg

Structure (SMILES): O=C(c1ccc(F)cc1)C1CCN(CCn2c(=O)[nH]c3ccccc3c2=O)CC1 [Ketanserin]
- prevention of thrombus formation (thrombus formation): extremely effective in preventing thrombus formation
- inhibition of PDGF induced DNA synthesis [3]: inhibited PDGF induced DNA synthesis
- inhibition of phospholipase C mediated hydrolysis of phosphoinositides [4]: inhibited phospholipase C mediated hydrolysis of phosphoinositides
- block of coronary vessel constriction [5]: blocked coronary vessel constriction
